The source of these data is patent US8063221B2, “Aminoquinolones as GSK-3 inhibitors” (Kyorin Pharmaceutical Co., Ltd., priority 2006, dated 2011).

The nature of experiment [1]: Animal Study 1 (blood glucose in db/db mice). Type of experiment: in vivo. Particulars: 100 mg/kg orally, 0-6 hr after administration. How it is done:
Animal Study 1 Male obese hyperglycemic mice (db/db) and lean mice (C57BL/6J) were obtained from Charles River Laboratories Japan (Yokohama, Japan). All mice were given a standard diet (Clea Japan, Tokyo, Japan) and tap water ad libitum. All institutional guidelines for animal care and use were applied in this study. Test compounds were suspended in 0.3% carboxymethyl-cellulose sodium salt (CMC-Na; Sigma, St. Louis, Mo.). After fasting for 2 hr, the test compounds (100 mg/kg) were administered orally to 7-week-old db/db mice. Vehicle (0.3% CMC-Na) was administered orally to both 7-week-old db/db mice and lean mice. Blood samples were collected from tail vein using capillary tubes containing EDTA·2K at 0, 0.5, 1, 2, 4, and 6 hr after the administration. The blood samples were centrifuged at 2,500×g for 5 min and separated plasma was kept on ice and analyzed in the same day. Plasma glucose levels were determined using the glucose CII-test (Wako Pure Chemical Industries, Osaka, Japan). CHIR99021 is a selective inhibitor of GSK3 enzyme known in the art (see, Ring D B et al., Selective GSK-3 inhibitors potentiate insulin activation of glucose transport and utilization in vitro and in vivo. Diabetes 2003, 52(3): 588-595).

Experiment [2] has as its target T1, recombinant full-length human GSK3β (Homo sapiens, UniProt P49841).
T1 construct: recombinant full-length human GSK3β (Upstate); purchased Upstate
Nature of the experiment: Luciferase-coupled cell-free GSK3β kinase assay. The experiment is classed as biochemical. Summed up: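 GSK3β, 10-25 ng, was incubated with compound for 1 h at 30° C in MOPS pH 7.0 buffer containing 62.5 μM phospho-glycogen synthase peptide-2 and 5 μM ATP. Remaining ATP was read by KinaseGlo luminescence, and IC50 was fitted from % inhibition relative to maximal inhibition.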

The test system of the next experiment is E. coli, ATCC8739. In words: Antibacterial activity (MIC), E. coli. Type of experiment: cell-based. Particulars: Escherichia coli. The procedure, abridged: (§1)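 MIC, the lowest compound concentration inhibiting bacterial growth in culture medium, determined by dilution method per CLSI M7-A4 guidance; reported in μM.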
The next experiment deals with S. aureus Smith. In words: Antibacterial activity (MIC), S. aureus. Particulars: Staphylococcus aureus. Type of experiment: cell-based. The procedure, abridged: as §1
Experiment [3] is described as follows: Animal Study 2 (oral glucose tolerance test). Also on record: species or system Crlj:CD1 (ICR) mice. The note with it: Mus musculus, read-out: In vivo studies 300 mg/kg (oral glucose tolerance test, % decrease). The source says: The results of in vivo oral glucose tolerance test (Example 39), expressed as % decrease, are presented as follows: […]
Animal Study 2 (Oral Glucose Tolerance Test)
Male Crlj:CD1 (ICR) mice were obtained from Charles River Laboratries Japan (Yokohama, Japan). All mice were given a standard diet (Clea Japan, Tokyo, Japan) and tap water ad libitum. All institutional guidelines for animal care and use were applied in this study. Test compounds were suspended in 0.3% carboxymethyl-cellulose sodium salt (CMC-Na; Sigma, St. Louis, Mo.). After fasting for 15-17 hr, the test compound (300 mg/kg) or vehicle (0.3% CMC-Na) was orally administered to 7-week-old ICR mice. Glucose solution (5 g/kg) was orally administered at 30 min after test compound treatment. Blood samples were collected from tail vein using capillary tubes containing EDTA·2K before test compound treatment, and at 0, 0.5, 1, and 2 hr after glucose load. The blood samples were centrifuged at 2,500×g for 5 min and separated plasma was kept on ice and analyzed in the same day. Plasma glucose levels were determined using the glucose C II-test (Wako Pure Chemical Industries, Osaka, Japan).
The sum of plasma glucose levels at 0.5 and 1 hr after glucose load was compared to that of vehicle treatment, and results were presented as percent decrease.

Setting [4] is: ATCC8739, Table 2, E. coli ATCC8739, read-out: Antimicrobial MIC [μM] E. Coli.
[5] abbreviates: Table 2, S. aureus Smith, read-out: Antimicrobial MIC [μM] S. aureus.
Where [6] appears, read: Table 2, 300 mg/kg oral, ICR mice, plasma glucose 0.5 and 1 hr after glucose load vs vehicle.
[7] abbreviates: ATCC8739, Table 1, E. coli ATCC8739, read-out: Antibacterial MIC (μM) E.Coli.
The mark [8] stands for this setting: Table 1, read-out: Antibacterial MIC (μM) S. aureus Smith.
[9] abbreviates: Table 1, 300 mg/kg oral, ICR mice, plasma glucose 0.5 and 1 hr after glucose load vs vehicle.

SMILES strings stand for the structures. Values after ≈ are worked out from the molar mass of the structure shown. Where two headings read alike, the source gives them in different places.

T1 sequence (P49841 whole entry): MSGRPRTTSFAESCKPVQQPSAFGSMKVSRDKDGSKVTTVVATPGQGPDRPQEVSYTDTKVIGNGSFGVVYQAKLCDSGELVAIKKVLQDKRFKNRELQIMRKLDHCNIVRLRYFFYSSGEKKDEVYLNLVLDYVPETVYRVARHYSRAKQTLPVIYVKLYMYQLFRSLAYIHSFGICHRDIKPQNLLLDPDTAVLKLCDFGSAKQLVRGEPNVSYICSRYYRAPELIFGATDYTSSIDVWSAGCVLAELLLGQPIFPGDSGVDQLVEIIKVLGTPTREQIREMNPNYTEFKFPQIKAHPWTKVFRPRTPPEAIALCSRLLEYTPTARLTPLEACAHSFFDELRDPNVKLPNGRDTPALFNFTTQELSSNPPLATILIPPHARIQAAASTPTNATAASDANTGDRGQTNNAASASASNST

As to `Cc1c[nH]c(-c2cnc(NCCNc3ccc(C#N)cn3)nc2-c2ccc(Cl)cc2Cl)n1` [CHIR99021], the “blood glucose levels (FIG. 1)” value in experiment [1] is reported as “drop in blood glucose levels”.

With `Nc1c(F)c(NCCNc2ccccn2)cc2c1c(=O)c(C(=O)O)cn2CCc1ccccc1` [Example 119], the IC50 in experiment [2] (Table 2) is < 100 nM. Further, the MIC in the experiment on E. coli, ATCC8739 (setting [4]) was 10 to 50 µM (≈ 4.61 to 23.1 µg/mL); in the experiment on S. aureus Smith (setting [5]) it was 10 to 50 µM (≈ 4.61 to 23.1 µg/mL). For the same compound, the inhibition in vivo at 300 mg/kg in experiment [3] (setting [6]) was < 5%.

As for `CC1(C)CCOc2c(NCCNc3ccccn3)c(F)c(N)c3c(=O)c(C(=O)O)cn1c23` [Example 139], in experiment [2] (Table 2), the half-maximal inhibitory concentration (IC50) was in the range of 100 to 500 nM. Moreover, the minimum inhibitory concentration (MIC) with E. coli, ATCC8739 (setting [4]) is > 50 µM; in the experiment with S. aureus Smith (setting [5]), > 50 µM. The inhibition in vivo at 300 mg/kg in experiment [3] (setting [6]) was > 20%.

`C[C@H]1COc2c(NCCNc3ccccn3)c(F)c(N)c3c(=O)c(C(=O)O)cn1c23` [compound 18]: in experiment [2] (Table 2), the 50% inhibitory concentration (IC50) is < 100 nM. Further, the MIC was in the range of 0.5 to 10 µM (≈ 0.207 to 4.13 µg/mL) in the experiment on E. coli, ATCC8739 (setting [4]) and 0.5 to 10 µM (≈ 0.207 to 4.13 µg/mL) in the experiment on S. aureus Smith (setting [5]). In addition, the inhibition in vivo at 300 mg/kg in experiment [3] (setting [6]) was 10 to 20%.

Consider `C[C@@H]1COc2c(NCCNc3ccccn3)c(F)c(N)c3c(=O)c(C(=O)O)cn1c23` [compound 31], for which the IC50 in experiment [2] (Table 2) was in the range of 100 to 500 nM. The MIC was 10 to 50 µM (≈ 4.13 to 20.7 µg/mL) in the experiment with E. coli, ATCC8739 (ATCC8739, read-out: Antimicrobial MIC [μM] E. Coli) and 10 to 50 µM (≈ 4.13 to 20.7 µg/mL) in the experiment on S. aureus Smith (read-out: Antimicrobial MIC [μM] S. aureus). The inhibition in vivo at 300 mg/kg in experiment [3] (po) was > 20%.

Turning to `CC1(C)COc2c(NCCCn3ccnc3)c(F)c(N)c3c(=O)c(C(=O)O)cn1c23` [compound 33], the IC50 in experiment [2] (Table 2) was in the range of 100 to 500 nM. Besides, the MIC was > 50 µM in the experiment with E. coli, ATCC8739 (setting [4]) and > 50 µM in the experiment on S. aureus Smith (setting [5]). Moreover, in experiment [3] (setting [6]), the inhibition in vivo at 300 mg/kg is > 20%.

As for `CC1(C)Cn2cc(C(=O)O)c(=O)c3c(N)c(F)c(NCCNc4ccccn4)c(c32)O1` [compound 57], the IC50 in experiment [2] (Table 2) lay in the range of 100 to 500 nM. Further, the MIC lay in the range of 10 to 50 µM (≈ 4.27 to 21.4 µg/mL) in the experiment on E. coli, ATCC8739 (setting [4]) and 10 to 50 µM (≈ 4.27 to 21.4 µg/mL) with S. aureus Smith (setting [5]). Besides, the inhibition in vivo at 300 mg/kg in experiment [3] (setting [6]) is > 20%.

As for `Nc1c(F)c(NCCCn2ccnc2)c(F)c2c1c(=O)ccn2CCc1ccccc1` [compound 62], the IC50 in experiment [2] (Table 1) is 100 to 500 nM. The minimal inhibitory concentration (MIC) in the experiment on E. coli, ATCC8739 (setting [7]) is > 50 µM; with S. aureus Smith (setting [8]), > 50 µM. For the same compound, the inhibition in vivo at 300 mg/kg in experiment [3] (setting [9]) was 5 to 10%.

For the compound `COc1c(NCCNc2cccc3ccccc23)c(F)c(N)c2c(=O)c(C(=O)O)cn(C3CC3)c12` [compound 70], in experiment [2] (Table 1), the half-inhibitory concentration (IC50) is < 100 nM. Besides, the MIC with E. coli, ATCC8739 (setting [7]) is > 50 µM; in the experiment with S. aureus Smith (setting [8]), 0.5 to 10 µM (≈ 0.238 to 4.77 µg/mL). The inhibition in vivo at 300 mg/kg in experiment [3] (setting [9]) was < 5%.

With `COc1c(NCCNc2ccccn2)c(F)c(N)c2c(=O)c(C(=O)O)cn(C3CC3)c12` [compound 71], in experiment [2] (Table 1), the 50% inhibitory concentration (IC50) lay within 100 to 500 nM. Besides, the minimal inhibitory concentration (MIC) lay in the range of 0.5 to 10 µM (≈ 0.214 to 4.27 µg/mL) with E. coli, ATCC8739 (setting [7]) and 0.5 to 10 µM (≈ 0.214 to 4.27 µg/mL) in the experiment on S. aureus Smith (setting [8]). Moreover, the inhibition in vivo at 300 mg/kg in experiment [3] (setting [9]) lay in the range of 10 to 20%.
